For three compounds, Dmax and DC50 results are on record in patent publication US20260297106A1, “SPIROCYCLIC SUBSTITUTED OXOISOINDOLINYL PIPERIDINE-2,6-DIONE COMPOUND” (Bristol-Myers Squibb Company, priority 2023, published 2026).

Common to all, as to assay type: cell-based
In one assay the target is IKZF1 Ikaros (Homo sapiens, UniProt Q13422+Q96SW2). Briefly: Jurkat Cellular Degradation Assay (IKZF1 Ikaros). The arrangement: endogenous in cells. The settings on record: Jurkat cells, 72 h; for Dmax: human, 100% = no detectable protein remaining, read-out: IKZF1 Ikaros max % deg. observed. The protocol:
(§1) Jurkat cells were plated at 80,000 cells/well in 40 μL RPMI+10% FBS in a 384-well cell culture plate prior to using acoustic dispensing technology for adding a compound of interest. Cell cultures were incubated for 72 h at 37° C. and 5% CO2. In order to facilitate analysis, cell cultures were spun down at 200 rpm for 5 min and the supernatant was discarded. After shaking the plate to dislodge the cell pellet, cells were resuspended in 50 μL of Fixation Buffer (eBioscience FoxP3 buffer set 00-5523-00) for 60 min at room temperature. After centrifuging and discarding the supernatant, cells were permeabilized with 50 μL of Permeabilization buffer (eBioscience FoxP3 buffer set 00-5523-00) for 10 min at room temperature. Following permeabilization, cells were spun down and the supernatant was replaced with 20 μL fluorescently labelled antibodies against Helios, Ikaros and Aiolos or corresponding Isotype controls in 1× Permeabilization buffer (Ikaros-Alexa488 [Biolegend, Cat #368408, 1:50], Helios-PE [CST, Cat #29360, 1:50], Aiolos-Alexa647 [Biolegend, Cat #371106 Biolegend, 1:25]) and staining reactions were incubated for 1 h at room temperature while protected from light. Subsequently, 30 μL of 1× Permeabilization buffer was added prior to centrifuging the cells and discarding the supernatant. Stained cells were resuspended in 25 μL of flow cytometry staining buffer [PBS+0.2% bovine serum albumin (BSA)] and analyzed using an Intellicyt Ique Plus flow cytometer.
(§2) Table A-1 lists the maximum observed degradation of the IKZF1 protein, IKZF2 protein, and IKZF3 protein as measured in the Jurkat Cellular Degradation assay. The results in Table A-I were rounded to two digits. In the Jurkat Cellular Degradation assay, a value of 100% indicated no detectable protein remaining or complete degradation of the protein; and a value of 0% indicated no detectable degradation of the protein by the test compound.

A further assay has as its target IKZF3 Aiolos (Homo sapiens, UniProt Q96SW2+Q9UKT9). Briefly: Human CD8+ T Cell Reprogramming Assay (IKZF3 Aiolos). Also on record: Cryopreserved healthy donor human peripheral blood mononuclear cells; endogenous in cells; host or cells: primary human PBMC, CD8+ T cells read by flow cytometry. The protocol: Cryopreserved healthy donor human peripheral blood mononuclear cells (PBMC) from healthy donors were thawed and seeded at 500,000 cells/well of 96-well round bottom plates in RPMI 1640 media (Gibco) supplemented with 10% FBS, Pen/Strep (Gibco), MEM-NEAA (Gibco), and sodium pyruvate (Gibco). Cells were treated with titrated doses of compound for 24 hours at 37° C., 5% CO2 before analyzing by flow cytometry.
For flow cytometry staining, cells were washed twice with flow cytometry staining buffer (Thermo Fisher) and incubated in Human Tru-stain Fc block (Biolegend) for 10 minutes before adding eFluor780 viability dye (Thermo Fisher) and surface marker antibody cocktail containing LD-eFluor780, CD3-BUV-395, CD4-BUV805, CD8-FITC, and CD25-BV605 for 30 minutes at 4° C. Cells were then fixed and permeabilized by incubation with permeabilization buffer (eBioscience FoxP3 buffer set 00-5523-00) for 30 minutes at 4° C. as per the kit manufacturer's instructions. Cells were washed twice with the Perm/Wash buffer supplied in the kit as per the manufacturer's instructions and incubated overnight at 4° C. with an intracellular antibody cocktail comprised of antibodies specific for the transcription factors (i.e., Foxp3-BV421, HELIOS-PE-Cy7, EOS-PE, IKAROS-PECF594, AIOLOS-AF647). Cells were washed twice with Perm/Wash buffer and resuspended in flow cytometry staining buffer (Thermo Fisher) prior to acquisition. Sample acquisition and analysis was performed using a BD LSRFortessa (BD Biosciences) flow cytometer. Single-stain controls for each fluorochrome were prepared using UltraComp eBead Compensation Beads (Thermo Fisher). Data were analyzed using FlowJo version 10 and GraphPad Prism Software.
Table D-1 lists the maximum observed degradation of the IKZF1 protein and IKZF3 protein as measured in the Human CD8^+ T Cell Reprogramming assay. The results in Table D-1 were rounded to two digits. In the Human CD8^+ T Cell Reprogramming assay, a value of 100% indicated no detectable protein remaining or complete degradation of the protein; and a value of 0% indicated no detectable degradation of the protein by the test compound.

A further assay deals with IKZF2 Helios (Homo sapiens, UniProt Q96SW2+Q9UKS7). Kind of assay: Jurkat Cellular Degradation Assay (IKZF2 Helios). Particulars: Jurkat cells, 72 h; for DC50: concentration reducing protein level by 50% vs DMSO; for Dmax: human, 100% = no detectable protein remaining, read-out: IKZF2 Helios max % deg. observed. The arrangement: endogenous in cells. As for the experimental part: as §1, §2

Setting [1] is: human PBMC, CD8+ T cells, 24 hours, read-out: Maximum Observed Degradation IKZF3 Aiolos.

Where two headings read alike, the source gives them in different places.

Sequence of IKZF2 Helios (Q9UKS7 whole entry): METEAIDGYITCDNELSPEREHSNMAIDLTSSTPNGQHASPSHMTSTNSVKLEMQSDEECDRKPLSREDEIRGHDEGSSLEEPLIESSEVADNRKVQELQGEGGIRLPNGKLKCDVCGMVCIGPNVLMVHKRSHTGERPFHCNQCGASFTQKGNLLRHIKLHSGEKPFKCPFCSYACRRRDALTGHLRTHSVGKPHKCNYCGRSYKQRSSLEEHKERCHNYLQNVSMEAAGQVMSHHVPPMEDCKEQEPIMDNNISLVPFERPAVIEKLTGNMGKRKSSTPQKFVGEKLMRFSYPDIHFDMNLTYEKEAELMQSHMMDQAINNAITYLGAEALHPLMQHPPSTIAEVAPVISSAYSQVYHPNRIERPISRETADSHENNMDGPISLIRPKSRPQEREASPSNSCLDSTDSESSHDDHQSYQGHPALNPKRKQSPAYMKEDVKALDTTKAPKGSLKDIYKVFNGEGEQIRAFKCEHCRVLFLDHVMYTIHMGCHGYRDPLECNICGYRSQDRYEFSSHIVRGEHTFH
Sequence of IKZF2 Helios (Q96SW2 whole entry): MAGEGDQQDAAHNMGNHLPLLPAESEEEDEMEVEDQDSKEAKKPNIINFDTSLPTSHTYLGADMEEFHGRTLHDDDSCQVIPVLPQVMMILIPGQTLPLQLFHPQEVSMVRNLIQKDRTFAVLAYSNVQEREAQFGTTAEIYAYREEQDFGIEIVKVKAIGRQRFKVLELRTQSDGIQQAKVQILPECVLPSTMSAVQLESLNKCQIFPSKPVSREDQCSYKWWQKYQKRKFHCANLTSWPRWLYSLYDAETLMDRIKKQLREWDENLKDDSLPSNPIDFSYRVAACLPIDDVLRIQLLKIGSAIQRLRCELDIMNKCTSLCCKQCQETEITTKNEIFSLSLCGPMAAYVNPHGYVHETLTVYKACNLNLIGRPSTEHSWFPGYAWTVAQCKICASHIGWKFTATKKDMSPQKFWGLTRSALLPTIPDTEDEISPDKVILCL
Sequence of IKZF2 Helios (Q16531 whole entry partner): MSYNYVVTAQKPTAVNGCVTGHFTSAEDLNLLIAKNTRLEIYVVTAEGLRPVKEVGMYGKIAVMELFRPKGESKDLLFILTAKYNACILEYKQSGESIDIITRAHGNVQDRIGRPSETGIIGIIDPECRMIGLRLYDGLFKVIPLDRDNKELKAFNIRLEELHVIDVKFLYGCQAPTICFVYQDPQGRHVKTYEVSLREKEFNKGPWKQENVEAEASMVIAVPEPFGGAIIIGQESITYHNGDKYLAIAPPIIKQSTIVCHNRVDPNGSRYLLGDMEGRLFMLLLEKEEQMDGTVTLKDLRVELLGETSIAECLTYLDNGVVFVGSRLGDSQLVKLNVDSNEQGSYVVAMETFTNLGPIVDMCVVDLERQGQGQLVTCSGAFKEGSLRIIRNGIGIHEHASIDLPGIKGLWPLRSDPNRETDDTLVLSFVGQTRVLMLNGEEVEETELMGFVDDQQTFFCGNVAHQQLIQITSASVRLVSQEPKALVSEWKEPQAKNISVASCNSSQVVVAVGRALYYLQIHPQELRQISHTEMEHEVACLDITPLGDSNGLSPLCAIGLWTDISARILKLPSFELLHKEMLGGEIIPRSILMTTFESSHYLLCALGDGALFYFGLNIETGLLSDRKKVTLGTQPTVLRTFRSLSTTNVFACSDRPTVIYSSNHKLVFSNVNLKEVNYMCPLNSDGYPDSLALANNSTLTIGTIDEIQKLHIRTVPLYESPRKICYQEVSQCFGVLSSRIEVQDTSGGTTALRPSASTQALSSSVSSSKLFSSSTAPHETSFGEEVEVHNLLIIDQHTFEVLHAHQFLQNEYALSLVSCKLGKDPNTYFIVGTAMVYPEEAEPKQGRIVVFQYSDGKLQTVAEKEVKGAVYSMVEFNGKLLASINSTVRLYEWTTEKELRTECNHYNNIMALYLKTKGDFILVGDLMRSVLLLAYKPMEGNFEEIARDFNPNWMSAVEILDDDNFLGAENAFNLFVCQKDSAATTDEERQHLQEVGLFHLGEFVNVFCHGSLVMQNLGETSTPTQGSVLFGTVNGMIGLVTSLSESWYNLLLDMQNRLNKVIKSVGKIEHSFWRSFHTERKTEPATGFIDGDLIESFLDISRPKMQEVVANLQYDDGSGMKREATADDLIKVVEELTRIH
Sequence of IKZF1 Ikaros (Q13422 whole entry): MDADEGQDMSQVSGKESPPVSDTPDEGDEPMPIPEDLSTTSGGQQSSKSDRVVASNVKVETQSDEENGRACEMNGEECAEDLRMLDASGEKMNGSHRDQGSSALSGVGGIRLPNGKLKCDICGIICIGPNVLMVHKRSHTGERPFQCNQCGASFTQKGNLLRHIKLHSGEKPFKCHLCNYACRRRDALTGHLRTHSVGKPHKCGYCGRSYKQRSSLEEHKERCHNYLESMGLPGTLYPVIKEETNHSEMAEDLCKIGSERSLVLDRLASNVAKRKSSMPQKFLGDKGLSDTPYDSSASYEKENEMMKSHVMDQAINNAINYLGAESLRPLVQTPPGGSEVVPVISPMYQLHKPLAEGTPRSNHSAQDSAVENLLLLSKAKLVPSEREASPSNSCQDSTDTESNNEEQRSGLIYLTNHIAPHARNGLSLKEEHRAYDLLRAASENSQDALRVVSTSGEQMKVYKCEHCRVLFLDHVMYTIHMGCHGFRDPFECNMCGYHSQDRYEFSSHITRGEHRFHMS
Sequence of IKZF1 Ikaros (Q96SW2 whole entry): as the sequence (Q96SW2 whole entry) above
Sequence of IKZF1 Ikaros (Q16531 whole entry partner): as the sequence (Q16531 whole entry partner) above
Sequence of IKZF3 Aiolos (Q9UKT9 whole entry): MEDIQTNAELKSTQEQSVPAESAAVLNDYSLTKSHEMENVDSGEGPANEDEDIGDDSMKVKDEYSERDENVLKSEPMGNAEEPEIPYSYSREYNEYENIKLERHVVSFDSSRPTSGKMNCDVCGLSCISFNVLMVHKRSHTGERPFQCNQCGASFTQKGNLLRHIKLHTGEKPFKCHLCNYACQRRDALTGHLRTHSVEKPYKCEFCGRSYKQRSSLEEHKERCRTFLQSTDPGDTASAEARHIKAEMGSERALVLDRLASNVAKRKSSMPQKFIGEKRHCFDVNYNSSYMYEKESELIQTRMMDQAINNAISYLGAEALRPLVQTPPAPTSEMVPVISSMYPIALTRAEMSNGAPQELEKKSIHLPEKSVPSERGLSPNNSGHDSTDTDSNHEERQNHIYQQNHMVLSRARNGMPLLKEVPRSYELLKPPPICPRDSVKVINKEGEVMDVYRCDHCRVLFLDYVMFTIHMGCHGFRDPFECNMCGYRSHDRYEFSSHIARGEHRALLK
Sequence of IKZF3 Aiolos (Q96SW2 whole entry): as the sequence (Q96SW2 whole entry) above
Sequence of IKZF3 Aiolos (Q16531 whole entry partner): as the sequence (Q16531 whole entry partner) above

Regarding `O=C1CCC(N2Cc3c(ccc(-c4cc(CN5CC(c6ccccc6)C5)ccn4)c3F)C2=O)C(=O)N1` (stereo not drawn) [Comparative Compound A, 3-(4-fluoro-1-oxo-5-(4-((3-phenylazetidin-1-yl)methyl)pyridin-2-yl)isoindolin-2-yl) piperidine-2,6-dione], the Dmax at IKZF1 Ikaros was determined as 13%; at IKZF3 Aiolos (setting [1]), 39%. In addition, the DC50 at IKZF2 Helios worked out at 2.9 nM.

Take `Nc1nc(-c2ccc3c(c2)CN(C2CCC(=O)NC2=O)C3=O)ccc1CN1CC2(CCC2)C1` (stereo not drawn) [Comparative Compound B, 3-(5-(5-((2-azaspiro[3.3]heptan-2-yl)methyl)-6-aminopyridin-2-yl)-1-oxoisoindolin-2-yl) piperidine-2,6-dione]: the figures for the Dmax at IKZF1 Ikaros, on IKZF3 Aiolos (setting [1]) and at IKZF2 Helios were 48%, 2% and 90%, respectively. On IKZF2 Helios, this compound registered a DC50 of 8 nM.

With `Nc1nc(-c2ccc3c(c2F)CN(C2CCC(=O)NC2=O)C3=O)ccc1CN1CC2(CCCOC2)C1` (stereo not drawn) [Example 1, 3-(5-(5-((6-oxa-2-azaspiro[3.5]nonan-2-yl)methyl)-6-aminopyridin-2-yl)-4-fluoro-1-oxoisoindolin-2-yl) piperidine-2,6-dione], the DC50 on IKZF1 Ikaros (concentration reducing protein level by 50% vs DMSO) was 6440 nM; at IKZF3 Aiolos (human PBMC, CD8+ T cells, 24 hours, concentration reducing protein level by 50% vs DMSO), 23 to 35 nM; on IKZF2 Helios it was 8.5 nM. The Dmax was 53% at IKZF1 Ikaros; 62 to 66% at IKZF3 Aiolos (setting [1]); 62 to 66% on IKZF3 Aiolos (human, 24 h, Table D-1, read-out: decreased the level of IKZF3 (Aiolos)); 62 to 66% on IKZF3 Aiolos (human, 24 h, Table E comparison, from Table D-1, read-out: IKZF3 Aiolos max % deg. observed); 91% on IKZF2 Helios.
